Results reported in US20080039410A1, “Inositol 1,4,5-Trisphosphate Receptor Mutants and Uses Thereof” (priority 2004, published 2008).
Where no end group is shown, it is not given here. The star is where a group is joined. Myristoyl = CCCCCCCCCCCCCC(=O)*

Tests used:
InsP3R-III = test: PKA stimulation of Ca2+ signals in DT-40 3ko cells transfected with rat InsP3R-III; format: cell-based
S2+ InsP3R-1 [1] = test: Potentiation of CCh-induced Ca2+ release after PKG activation (8-Br cGMP), S2+ InsP3R-1 constructs in DT-40 3ko cells; format: cell-based, rat; conditions: 30 min pretreatment, cells expressing S2+ InsP3R-1
Method: (§1) Transfected DT-40 3ko cells were washed once in a HEPES-buffered physiological saline solution (HEPES-PSS) containing (in mM) 5.5 glucose, 137 NaCl, 0.56 MgCl2, 4.7 KCl, 1 Na2HPO4, 10 HEPES (pH 7.4), 1.2 CaCl2 and 1% w/v Bovine Serum Albumin. Cells were then resuspended in BSA HEPES-PSS with 1 μM Fura-2 (AM), placed on a 15 mm glass coverslip in a low volume perfusion chamber (Warner Instruments) and allowed to adhere for 30 minutes at room temperature. Cells were perfused continually for 10 minutes with HEPES-PSS before experimentation to allow Fura-2 de-esterification. A field of cells for each experiment was chosen that contained a wide range of transfection efficiency based upon the intensity of red fluorescence emitted when excited at 560 nm. [Ca^2+]i imaging was performed essentially as previously described using an inverted epifluorescence Nikon microscope with a 40× oil immersion objective lens (numerical aperture, 1.3). Cells were excited alternately with light at 340 and 380 nm (±10 mn bandpass filters, Chroma) using a monochrometer (TILL Photonics). Fluorescence images were captured and digitized with a digital camera driven by TILL Photonics software. Images were captured every 2 seconds with an exposure of 35 ms and no binning. 340/380 ratio images were calculated online and stored immediately to hard disk.
(§2) The effects of treatment were determined by normalizing the peak change in fluorescence ratio by stimulation following forskolin or 8-Br cGMP exposure to that of stimulation in control HEPES-PSS. Thus, pooled data represents a normalized fold increase over control for the treated trial. Two tailed heteroscedastic t-tests with P values<0.05 were considered to have statistical significance.
Similar experiments were performed to assess the effects on Ca^2+ release of phosphorylating InsP3R-1 with PKG. Cells transfected with S2^+ InsP3R-1 together with M3 receptor and HcRed were stimulated with low, threshold concentrations of CCh (25-50 nM) followed by a 10 min treatment with 10 μM 8-Br cGMP, a specific activator of PKG [48]. […] In a similar fashion to PKA activation, this was manifested as an increase in the CCh-induced initial peak (FIG. 4A and pooled data FIG. 4E).
(§3) The effects of treatment were determined by normalizing the peak change in fluorescence ratio by stimulation following forskolin or 8-Br-cGMP exposure to that of stimulation in control HEPES-PSS. Thus, pooled data represent a normalized fold increase over control for the treated trial. In all cases where statistical significance is indicated, two-tailed heteroscedastic t tests were performed. P values<0.05 were considered to indicate statistical significance and are denoted by an asterisk in the figures.
Despite these differences, experiments were performed to define further the phosphorylation sites important for regulation of Ca^2+ release by PKG. […] In contrast, in cells expressing S2+SE no effect on CCh-induced Ca^2+ release following activation of PKG was observed (FIG. 23C and pooled data in FIG. 23D).

S2+ InsP3R-1 [2] = test: Potentiation of CCh-induced Ca2+ release after PKA activation (forskolin), S2+ InsP3R-1 constructs in DT-40 3ko cells; format: cell-based, rat; conditions: 30 min pretreatment, cells expressing S2+ InsP3R-1
Method: DT-40 cells lacking all three InsP3 receptor subtypes DT-40 3ko were transfected using electroporation, 350 V and 950 μF. 2×10^7 cells were co-transfected with 25 μg of the InsP3R cDNA, 25 μg of the muscarinic type 3 (M3) receptor, and 4 μg of the red fluorescent protein plasmid pHcRed1-N1. Cells were incubated with DNA in 500 μL of Optimem media on ice for 10 minutes. The cell/DNA mixture was electroporated, incubated on ice for 30 minutes, brought up to 5 ml with Optimem and placed in a 5% C02 incubator at 39° C. for 5 hours. The cells were then centrifuged and resuspended in 12 ml of complete RPMI media. Transfection efficiency was typically ˜20%. Experiments were performed within 32 hours of transfection.
as §1, §2
Experiments were performed in DT-40 3ko cells transfected with S2^+ InsP3R-1. Since there are no reports of Gαq coupled receptors expressed in DT-40 cells, initial experiments were performed eliciting [Ca^2+]i changes by stimulating the endogenous B cell receptor with α-IgM antibody. […] Thus, in all further experiments, DT-40 3ko cells were co-transfected with the M3 receptor, and HcRed to facilitate identification of transfected cells (inset FIG. 1). Stimulation of M3 receptors with the muscarinic agonist carbachol (CCh), provided a convenient means of stimulating [Ca^2+]i changes, presumably through Gαq-induced activation of phospholipase C and production of InsP3. […] The potentiation was most marked when threshold elevations in [Ca^2+]i were evoked by the initial exposure to CCh and therefore only cells in which the initial CCh treatment evoked a Δ 340/380 ratio of<0.2 ratio units were included for analysis. […] [Ca^2+]i changes were never evoked by CCh treatment in cells transfected with only M3 cDNA in the absence of InsP3R or likewise InsP3R with no M3 cDNA.
as §3, with “P values<0.05 were considered to indicate statistical significance and are denoted by an asterisk in the figures.” left out

Row | Substance | effect of stimulating PKA on Ca^2+ signals (InsP3R-III) | effect of PKI on 8-Br cGMP-induced enhancement of Ca^2+ release (S2+ InsP3R-1 [1]) | effect of PKI on 8-Br cGMP-induced enhancement of Ca^2+ release (S2+ InsP3R-1 [1]; listed as myristolyated PKI) | effect of PKI on forskolin-induced enhancement of Ca^2+ release (S2+ InsP3R-1 [2]) | effect of PKI on forskolin-induced enhancement of Ca^2+ release (S2+ InsP3R-1 [2]; listed as myristolyated PKI)
1 | rat InsP3R-III: rat type 3 InsP3 receptor transfected into DT-40 3ko cells | inhibited | – | – | – | –
2 | PKI: cell-permeable PKA inhibitor, myristolyated PKI (Myristoyl-SGRTGRRNA; UniProt P61925 14-22, looked up, fragment) [reference compound] | – | does not affect | did not alter | completely abolishes | completely abolished
